From PubChem BioAssay (NCI)
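Tested at 5 concentrations; 48 h exposure; 96-well plates; endpoints linearly interpolated, else capped at highest concentration. GI50 is the concentration that inhibits growth by half. TGI is the concentration that stops growth completely.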

What was measured:
Assay in all cases: DTP human tumour cell line panel, 48 h
786-0 renal = test system: 786-0 renal
A498 renal = test system: A498 renal
A549 NSCLC = test system: A549 NSCLC
ACHN renal = test system: ACHN renal
BT-549 breast = test system: BT-549 breast
CAKI-1 renal = test system: CAKI-1 renal
CCRF-CEM leukemia = test system: CCRF-CEM leukemia
COLO 205 colon = test system: COLO 205 colon
DU-145 prostate = test system: DU-145 prostate
EKVX NSCLC = test system: EKVX NSCLC
HCC-2998 colon = test system: HCC-2998 colon
HCT-116 colon = test system: HCT-116 colon
HCT-15 colon = test system: HCT-15 colon
HL-60(TB) leukemia = test system: HL-60(TB) leukemia
HOP-62 NSCLC = test system: HOP-62 NSCLC
HOP-92 NSCLC = test system: HOP-92 NSCLC
HT29 colon = test system: HT29 colon
IGROV1 ovarian = test system: IGROV1 ovarian
K-562 leukemia = test system: K-562 leukemia
KM12 colon = test system: KM12 colon
LOX IMVI melanoma = test system: LOX IMVI melanoma
M14 melanoma = test system: M14 melanoma
MALME-3M melanoma = test system: MALME-3M melanoma
MCF7 breast = test system: MCF7 breast
MDA-MB-231 breast = test system: MDA-MB-231 breast
MDA-MB-435 = test system: MDA-MB-435
MDA-MB-468 breast = test system: MDA-MB-468 breast
MOLT-4 leukemia = test system: MOLT-4 leukemia
NCI-H23 lung = test system: NCI-H23 lung
NCI-H522 lung = test system: NCI-H522 lung
NCI/ADR-RES ovarian = test system: NCI/ADR-RES ovarian
OVCAR-3 ovarian = test system: OVCAR-3 ovarian
OVCAR-4 ovarian = test system: OVCAR-4 ovarian
OVCAR-5 ovarian = test system: OVCAR-5 ovarian
PC-3 prostate = test system: PC-3 prostate
RPMI-8226 leukemia = test system: RPMI-8226 leukemia
RXF 393 renal = test system: RXF 393 renal
SF-268 CNS = test system: SF-268 CNS
SF-295 CNS = test system: SF-295 CNS
SF-539 CNS = test system: SF-539 CNS
SK-MEL-28 melanoma = test system: SK-MEL-28 melanoma
SK-MEL-5 melanoma = test system: SK-MEL-5 melanoma
SK-OV-3 ovarian = test system: SK-OV-3 ovarian
SN12C renal = test system: SN12C renal
SNB-19 CNS = test system: SNB-19 CNS
SNB-75 CNS = test system: SNB-75 CNS
SR leukemia = test system: SR leukemia
SW-620 colon = test system: SW-620 colon
T-47D breast = test system: T-47D breast
TK-10 renal = test system: TK-10 renal
U251 CNS = test system: U251 CNS
UACC-257 melanoma = test system: UACC-257 melanoma
UACC-62 melanoma = test system: UACC-62 melanoma
UO-31 renal = test system: UO-31 renal

CC[C@]12C=CCN3CC[C@@]4(c5ccc(OC)cc5N(C)[C@H]4[C@@](O)(C(=O)OC)[C@@H]1OC(=O)CCC[P+](c1ccc(C)cc1)(c1ccc(C)cc1)c1ccc(C)cc1)[C@@H]32
GI50 (786-0 renal): 0.756 µM | TGI (786-0 renal): 2.08 µM | GI50 (A498 renal): 1.56 µM | TGI (A498 renal): 3.23 µM | GI50 (A549 NSCLC): 0.369 µM | TGI (A549 NSCLC): 1.47 µM | GI50 (ACHN renal): 1.32 µM | TGI (ACHN renal): 2.7 µM | GI50 (BT-549 breast): 0.227 µM | TGI (BT-549 breast): 0.727 µM | GI50 (CAKI-1 renal): 1.33 µM | TGI (CAKI-1 renal): 3.05 µM | GI50 (CCRF-CEM leukemia): 0.301 µM | TGI (CCRF-CEM leukemia): 1.45 µM | GI50 (COLO 205 colon): 0.18 µM | TGI (COLO 205 colon): 0.364 µM | GI50 (DU-145 prostate): 0.427 µM | TGI (DU-145 prostate): 1.58 µM | GI50 (EKVX NSCLC): 0.46 µM | TGI (EKVX NSCLC): 1.78 µM | GI50 (HCC-2998 colon): 0.319 µM | TGI (HCC-2998 colon): 1.2 µM | GI50 (HCT-116 colon): 0.271 µM | TGI (HCT-116 colon): 1.11 µM | GI50 (HCT-15 colon): 1.63 µM | TGI (HCT-15 colon): 3.04 µM | GI50 (HL-60(TB) leukemia): 0.178 µM | TGI (HL-60(TB) leukemia): 0.593 µM | GI50 (HOP-62 NSCLC): 0.311 µM | TGI (HOP-62 NSCLC): 1.17 µM | GI50 (HOP-92 NSCLC): 0.173 µM | TGI (HOP-92 NSCLC): 0.578 µM | GI50 (HT29 colon): 0.195 µM | TGI (HT29 colon): 0.446 µM | GI50 (IGROV1 ovarian): 0.336 µM | TGI (IGROV1 ovarian): 1.18 µM | GI50 (K-562 leukemia): 0.14 µM | TGI (K-562 leukemia): 1.15 µM | GI50 (KM12 colon): 0.309 µM | TGI (KM12 colon): 1.11 µM | GI50 (LOX IMVI melanoma): 0.327 µM | TGI (LOX IMVI melanoma): 1.14 µM | GI50 (M14 melanoma): 0.384 µM | TGI (M14 melanoma): 1.37 µM | GI50 (MALME-3M melanoma): 0.189 µM | TGI (MALME-3M melanoma): 0.448 µM | GI50 (MCF7 breast): 0.229 µM | TGI (MCF7 breast): 0.968 µM | GI50 (MDA-MB-231 breast): 0.234 µM | TGI (MDA-MB-231 breast): 0.61 µM | GI50 (MDA-MB-435): 0.29 µM | TGI (MDA-MB-435): 1.04 µM | GI50 (MDA-MB-468 breast): 0.133 µM | TGI (MDA-MB-468 breast): 0.354 µM | GI50 (MOLT-4 leukemia): 0.32 µM | TGI (MOLT-4 leukemia): 1.46 µM | GI50 (NCI-H23 lung): 0.282 µM | TGI (NCI-H23 lung): 1.02 µM | GI50 (NCI-H522 lung): 0.264 µM | TGI (NCI-H522 lung): 0.929 µM | GI50 (NCI/ADR-RES ovarian): 8.87 µM | TGI (NCI/ADR-RES ovarian): 49.6 µM | GI50 (OVCAR-3 ovarian): 0.337 µM | TGI (OVCAR-3 ovarian): 1.27 µM | GI50 (OVCAR-4 ovarian): 0.352 µM | TGI (OVCAR-4 ovarian): 1.58 µM | GI50 (OVCAR-5 ovarian): 0.267 µM | TGI (OVCAR-5 ovarian): 0.905 µM | GI50 (PC-3 prostate): 0.236 µM | TGI (PC-3 prostate): 1.08 µM | GI50 (RPMI-8226 leukemia): 0.128 µM | TGI (RPMI-8226 leukemia): 1.04 µM | GI50 (RXF 393 renal): 0.256 µM | TGI (RXF 393 renal): 0.911 µM | GI50 (SF-268 CNS): 0.335 µM | TGI (SF-268 CNS): 1.42 µM | GI50 (SF-295 CNS): 0.371 µM | TGI (SF-295 CNS): 1.31 µM | GI50 (SF-539 CNS): 0.313 µM | TGI (SF-539 CNS): 1.1 µM | GI50 (SK-MEL-28 melanoma): 0.383 µM | TGI (SK-MEL-28 melanoma): 1.46 µM | GI50 (SK-MEL-5 melanoma): 0.356 µM | TGI (SK-MEL-5 melanoma): 1.04 µM | GI50 (SK-OV-3 ovarian): 0.262 µM | TGI (SK-OV-3 ovarian): 0.794 µM | GI50 (SN12C renal): 0.264 µM | TGI (SN12C renal): 0.949 µM | GI50 (SNB-19 CNS): 0.29 µM | TGI (SNB-19 CNS): 1.14 µM | GI50 (SNB-75 CNS): 0.217 µM | TGI (SNB-75 CNS): 0.777 µM | GI50 (SR leukemia): 0.294 µM | TGI (SR leukemia): 1.4 µM | GI50 (SW-620 colon): 0.399 µM | TGI (SW-620 colon): 1.58 µM | GI50 (T-47D breast): 0.247 µM | TGI (T-47D breast): 0.907 µM | GI50 (TK-10 renal): 0.602 µM | TGI (TK-10 renal): 1.92 µM | GI50 (U251 CNS): 0.258 µM | TGI (U251 CNS): 1.4 µM | GI50 (UACC-257 melanoma): 0.31 µM | TGI (UACC-257 melanoma): 1.12 µM | GI50 (UACC-62 melanoma): 0.247 µM | TGI (UACC-62 melanoma): 0.822 µM | GI50 (UO-31 renal): 1.45 µM | TGI (UO-31 renal): 2.82 µM
